Data: ChEMBL document CHEMBL3217463, “Design, synthesis and biological evaluation of -lactam hydroxamate based TACE inhibitors” (Medchemcomm, 2011)

What was measured:
[1] = target: T1, Disintegrin and metalloproteinase domain-containing protein 17 (Homo sapiens, UniProt P78536); experiment: Ratio of IC50 for human catalytic domain of TACE to IC50 for MMP3 (unknown origin)
Rattus norvegicus [2] = experiment: Toxicity in Wistar rat assessed as relative spleen weight at 100 mg/kg, po bid for 28 days (reference value: 0.201+/- 0.007 %); type: organism-based; design: dose 100 mg/kg, route oral; conditions: in vivo, 672 h
[3] = target: T2, Disintegrin and metalloproteinase domain-containing protein 10 (Homo sapiens, UniProt O14672); experiment: Inhibition of ADAM10 (unknown origin) using fluorescent substrate by fluorescence-based FRET assay
T2 sequence (O14672 whole entry): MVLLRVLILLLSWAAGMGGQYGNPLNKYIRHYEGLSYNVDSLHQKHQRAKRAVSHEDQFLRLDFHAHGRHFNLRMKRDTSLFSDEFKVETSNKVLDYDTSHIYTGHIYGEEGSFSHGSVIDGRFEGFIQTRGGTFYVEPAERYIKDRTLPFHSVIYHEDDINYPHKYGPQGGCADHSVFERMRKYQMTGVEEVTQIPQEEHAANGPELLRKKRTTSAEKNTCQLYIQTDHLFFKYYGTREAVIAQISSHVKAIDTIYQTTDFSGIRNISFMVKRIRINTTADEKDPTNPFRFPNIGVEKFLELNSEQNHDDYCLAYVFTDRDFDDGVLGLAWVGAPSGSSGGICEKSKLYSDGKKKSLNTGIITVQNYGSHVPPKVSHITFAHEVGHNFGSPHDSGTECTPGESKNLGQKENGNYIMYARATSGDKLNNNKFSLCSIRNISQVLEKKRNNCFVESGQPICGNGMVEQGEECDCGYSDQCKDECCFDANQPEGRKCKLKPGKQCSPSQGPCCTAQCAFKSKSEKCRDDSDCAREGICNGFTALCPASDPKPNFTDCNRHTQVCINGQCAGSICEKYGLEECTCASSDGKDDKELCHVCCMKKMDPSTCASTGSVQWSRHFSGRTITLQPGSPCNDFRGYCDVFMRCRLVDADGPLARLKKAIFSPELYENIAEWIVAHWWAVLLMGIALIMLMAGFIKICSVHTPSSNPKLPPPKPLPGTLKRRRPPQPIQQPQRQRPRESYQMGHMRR

Rattus norvegicus [4] = experiment: Toxicity in Wistar rat assessed as relative brain weight at 100 mg/kg, po bid for 28 days (reference value: 0.727+/- 0.024 %); type: organism-based; design: dose 100 mg/kg, route oral; conditions: in vivo, 672 h
Rattus norvegicus [5] = experiment: Toxicity in Wistar rat assessed as relative kidney weight at 100 mg/kg, po bid for 28 days (reference value: 0.821 +/- 0.03 %); type: organism-based; design: dose 100 mg/kg, route oral; conditions: in vivo, 672 h
Mus musculus = experiment: Antiinflammatory activity in po dosed Swiss Albino mouse assessed as inhibition of LPS-induced TNFalpha secretion in blood treated 0.5 hrs before LPS and measured after 1 hr of LPS stimulus by ELISA; type: functional
[6] = target: T1, Disintegrin and metalloproteinase domain-containing protein 17; experiment: Ratio of IC50 for human catalytic domain of TACE to IC50 for ADAM10 (unknown origin)
Interstitial collagenase = target: T3, Interstitial collagenase (Homo sapiens, UniProt P03956); experiment: Inhibition of MMP1 (unknown origin) by fluorescence-based FRET assay
T3 sequence (P03956 whole entry): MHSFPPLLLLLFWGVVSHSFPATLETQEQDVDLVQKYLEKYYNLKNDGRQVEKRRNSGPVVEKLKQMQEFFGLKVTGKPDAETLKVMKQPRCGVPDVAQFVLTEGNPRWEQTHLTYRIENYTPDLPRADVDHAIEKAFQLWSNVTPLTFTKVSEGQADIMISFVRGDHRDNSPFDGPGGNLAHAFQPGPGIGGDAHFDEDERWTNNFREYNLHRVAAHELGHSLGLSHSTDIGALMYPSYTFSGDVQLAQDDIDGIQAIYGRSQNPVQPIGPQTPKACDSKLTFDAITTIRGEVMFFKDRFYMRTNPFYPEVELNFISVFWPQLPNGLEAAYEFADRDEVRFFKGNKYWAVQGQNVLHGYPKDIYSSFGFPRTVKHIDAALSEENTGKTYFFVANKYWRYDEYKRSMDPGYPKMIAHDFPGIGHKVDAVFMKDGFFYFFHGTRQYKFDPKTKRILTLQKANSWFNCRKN

[7] = target: T1, Disintegrin and metalloproteinase domain-containing protein 17; experiment: Ratio of IC50 for human catalytic domain of TACE to IC50 for MMP1 (unknown origin)
Rattus norvegicus [8] = experiment: Toxicity in Wistar rat assessed as alanine aminotransferase at 100 mg/kg, po bid for 28 days (reference value: 20.78 +/- 1.31 U/L); type: organism-based; design: dose 100 mg/kg, route oral; conditions: in vivo, 672 h
[9] = AUC in Wistar rat at 5 mg/kg, iv; type: ADME, organism-based; design: dose 5 mg/kg, route intravenous; conditions: plasma
[10] = target: T1, Disintegrin and metalloproteinase domain-containing protein 17; experiment: Ratio of IC50 for human catalytic domain of TACE to IC50 for MMP13 (unknown origin)
Rattus norvegicus [11] = experiment: Toxicity in Wistar rat assessed as RBC count at 100 mg/kg, po bid for 28 days (reference value: 7.38 +/- 0.11 10^6/ul); type: organism-based; design: dose 100 mg/kg, route oral; conditions: in vivo, 672 h
Rattus norvegicus [12] = experiment: Toxicity in Wistar rat assessed as WBC count at 100 mg/kg, po bid for 28 days (reference value: 8.20 +/- 0.33 10^3/ul); type: organism-based; design: dose 100 mg/kg, route oral; conditions: in vivo, 672 h
[13] = Oral bioavailability in Wistar rat at 5 mg/kg; type: ADME, organism-based; conditions: in vivo
[14] = Tmax in Wistar rat at 5 mg/kg, po; type: ADME, organism-based; design: dose 5 mg/kg, route oral; conditions: in vivo
Rattus norvegicus [15] = experiment: Toxicity in Wistar rat assessed as survival at 100 mg/kg, po bid for 28 days; type: organism-based; design: dose 100 mg/kg, route oral; conditions: in vivo, 672 h
[16] = target: 72 kDa type IV collagenase (Homo sapiens, UniProt P08253); experiment: Inhibition of MMP2 (unknown origin) by fluorescence-based FRET assay
Sequence of 72 kDa type IV collagenase (P08253 whole entry): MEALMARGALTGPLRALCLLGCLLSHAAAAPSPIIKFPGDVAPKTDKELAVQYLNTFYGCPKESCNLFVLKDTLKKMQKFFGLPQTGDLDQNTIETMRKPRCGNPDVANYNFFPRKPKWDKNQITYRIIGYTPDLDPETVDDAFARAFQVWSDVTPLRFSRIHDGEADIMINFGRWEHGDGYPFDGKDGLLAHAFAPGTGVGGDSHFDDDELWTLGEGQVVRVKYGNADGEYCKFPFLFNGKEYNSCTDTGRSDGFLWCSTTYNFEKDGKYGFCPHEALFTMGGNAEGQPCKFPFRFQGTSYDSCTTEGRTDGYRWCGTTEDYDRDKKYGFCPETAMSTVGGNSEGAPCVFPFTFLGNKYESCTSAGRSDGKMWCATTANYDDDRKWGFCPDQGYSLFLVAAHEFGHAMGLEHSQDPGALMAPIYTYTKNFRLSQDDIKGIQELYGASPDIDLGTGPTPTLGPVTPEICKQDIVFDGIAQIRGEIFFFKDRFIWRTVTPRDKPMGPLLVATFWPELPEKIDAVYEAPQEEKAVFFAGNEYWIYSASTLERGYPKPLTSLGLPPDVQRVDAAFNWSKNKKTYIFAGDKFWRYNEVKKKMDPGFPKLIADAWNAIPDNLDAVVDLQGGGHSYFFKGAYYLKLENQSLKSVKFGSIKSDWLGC

[17] = target: Matrix metalloproteinase-9 (Homo sapiens, UniProt P14780); experiment: Inhibition of MMP9 (unknown origin) by fluorescence-based FRET assay
Sequence of Matrix metalloproteinase-9 (P14780 whole entry): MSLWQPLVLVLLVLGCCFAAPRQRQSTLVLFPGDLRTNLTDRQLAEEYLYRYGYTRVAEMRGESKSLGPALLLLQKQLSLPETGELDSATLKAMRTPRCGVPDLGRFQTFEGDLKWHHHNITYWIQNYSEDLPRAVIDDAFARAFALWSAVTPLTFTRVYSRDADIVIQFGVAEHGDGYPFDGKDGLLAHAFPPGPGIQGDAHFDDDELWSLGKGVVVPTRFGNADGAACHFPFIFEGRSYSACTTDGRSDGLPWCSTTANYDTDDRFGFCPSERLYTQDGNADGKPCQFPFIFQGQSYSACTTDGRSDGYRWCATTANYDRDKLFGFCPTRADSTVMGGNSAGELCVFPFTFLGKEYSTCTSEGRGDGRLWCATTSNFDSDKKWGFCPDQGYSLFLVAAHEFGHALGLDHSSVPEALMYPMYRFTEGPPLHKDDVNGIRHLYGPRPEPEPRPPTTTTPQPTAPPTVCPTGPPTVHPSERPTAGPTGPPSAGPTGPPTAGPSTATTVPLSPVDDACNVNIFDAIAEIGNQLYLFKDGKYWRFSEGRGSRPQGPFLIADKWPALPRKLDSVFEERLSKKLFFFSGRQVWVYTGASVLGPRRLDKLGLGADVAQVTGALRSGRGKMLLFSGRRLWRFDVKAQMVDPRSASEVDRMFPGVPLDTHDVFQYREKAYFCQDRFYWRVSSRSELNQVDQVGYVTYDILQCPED

[18] = AUC in Wistar rat at 5 mg/kg, po; type: ADME, organism-based; design: dose 5 mg/kg, route oral; conditions: plasma
[19] = target: T1, Disintegrin and metalloproteinase domain-containing protein 17; experiment: Ratio of IC50 for human catalytic domain of TACE to IC50 for MMP14 (unknown origin)
[20] = target: T1, Disintegrin and metalloproteinase domain-containing protein 17; experiment: Ratio of IC50 for human catalytic domain of TACE to IC50 for MMP9 (unknown origin)
Rattus norvegicus [21] = experiment: Toxicity in Wistar rat assessed as body weight at 100 mg/kg, po bid for 28 days; type: organism-based; design: dose 100 mg/kg, route oral; conditions: in vivo, 672 h
Rattus norvegicus [22] = experiment: Toxicity in Wistar rat assessed as aspartate aminotransferase at 100 mg/kg, po bid for 28 days (reference value: 147.16 +/- 11.75 U/L); type: organism-based; design: dose 100 mg/kg, route oral; conditions: in vivo, 672 h
Stromelysin-1 = Stromelysin-1 (Homo sapiens, UniProt P08254); experiment: Inhibition of MMP3 (unknown origin) by fluorescence-based FRET assay
Sequence of Stromelysin-1 (P08254 whole entry): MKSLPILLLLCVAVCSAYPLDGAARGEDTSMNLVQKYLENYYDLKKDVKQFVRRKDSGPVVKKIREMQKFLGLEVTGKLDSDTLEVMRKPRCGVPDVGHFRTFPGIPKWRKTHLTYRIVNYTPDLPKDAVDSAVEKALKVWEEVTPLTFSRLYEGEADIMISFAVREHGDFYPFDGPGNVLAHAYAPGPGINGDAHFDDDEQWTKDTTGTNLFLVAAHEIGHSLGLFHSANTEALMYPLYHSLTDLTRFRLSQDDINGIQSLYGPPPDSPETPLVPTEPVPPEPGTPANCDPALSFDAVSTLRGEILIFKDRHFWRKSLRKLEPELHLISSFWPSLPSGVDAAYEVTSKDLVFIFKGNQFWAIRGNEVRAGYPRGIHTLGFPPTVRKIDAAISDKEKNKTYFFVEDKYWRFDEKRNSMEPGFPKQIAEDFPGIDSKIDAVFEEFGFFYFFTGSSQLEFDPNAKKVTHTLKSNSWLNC

[23] = target: Matrix metalloproteinase-14 (Homo sapiens, UniProt P50281); experiment: Inhibition of MMP14 (unknown origin) by fluorescence-based FRET assay
Rattus norvegicus [24] = experiment: Half life in Wistar rat at 5 mg/kg, po; type: ADME, organism-based; design: dose 5 mg/kg, route oral; conditions: in vivo
Rattus norvegicus [25] = experiment: Toxicity in Wistar rat assessed as relative heart weight at 100 mg/kg, po bid for 28 days (reference value: 0.345 +/- 0.007 %); type: organism-based; design: dose 100 mg/kg, route oral; conditions: in vivo, 672 h
Rattus norvegicus [26] = experiment: Toxicity in Wistar rat assessed as total bilirubin at 100 mg/kg, po bid for 28 days (reference value: 0.14 +/- 0.01 mg/dL); type: organism-based; design: dose 100 mg/kg, route oral; conditions: in vivo, 672 h

T1 sequence (P78536 whole entry, the tested form may be a part): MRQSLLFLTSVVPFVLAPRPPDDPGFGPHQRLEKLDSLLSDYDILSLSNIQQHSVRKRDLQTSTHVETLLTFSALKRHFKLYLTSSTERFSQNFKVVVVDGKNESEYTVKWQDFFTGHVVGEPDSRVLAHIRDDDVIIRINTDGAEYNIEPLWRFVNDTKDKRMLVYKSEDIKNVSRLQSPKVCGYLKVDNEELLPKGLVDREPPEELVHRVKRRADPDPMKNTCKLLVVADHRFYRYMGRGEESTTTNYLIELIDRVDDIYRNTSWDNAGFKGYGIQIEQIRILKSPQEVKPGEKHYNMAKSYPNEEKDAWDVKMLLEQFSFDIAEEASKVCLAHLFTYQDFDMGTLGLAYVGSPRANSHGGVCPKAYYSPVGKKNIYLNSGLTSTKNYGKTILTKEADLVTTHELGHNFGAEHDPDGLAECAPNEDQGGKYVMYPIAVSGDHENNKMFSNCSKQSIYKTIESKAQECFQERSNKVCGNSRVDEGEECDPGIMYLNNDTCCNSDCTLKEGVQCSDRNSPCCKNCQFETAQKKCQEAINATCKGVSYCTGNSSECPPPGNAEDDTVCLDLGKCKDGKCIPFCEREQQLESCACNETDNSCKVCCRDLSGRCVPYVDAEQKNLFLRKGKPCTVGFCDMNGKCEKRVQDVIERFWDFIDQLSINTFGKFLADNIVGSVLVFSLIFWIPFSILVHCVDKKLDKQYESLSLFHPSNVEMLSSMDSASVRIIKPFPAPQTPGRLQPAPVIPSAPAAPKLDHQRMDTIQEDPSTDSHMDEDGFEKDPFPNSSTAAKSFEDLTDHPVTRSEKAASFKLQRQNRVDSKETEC

**Q.** Which Ratio IC50 [1] does the source give for `COCCc1cc(COc2ccc([C@]3(N)CCN([C@H](CC(C)C)C(=O)NO)C3=O)cc2)c2ccccc2n1` here?
**A.** > 500

**Q.** And the Activity (Rattus norvegicus [2])?
**A.** 0.203%

**Q.** And the IC50 [3]?
**A.** 1.2 µM

**Q.** What about the Activity (Rattus norvegicus [4]) of the same molecule?
**A.** 0.703%

**Q.** And the Activity (Rattus norvegicus [5])?
**A.** 0.878%

**Q.** What about the ED50 (Mus musculus) of the same molecule?
**A.** 3.1 mg/kg

**Q.** And the Ratio IC50 [6]?
**A.** > 500

**Q.** And the IC50 (Interstitial collagenase)?
**A.** 1.06 µM

**Q.** And the Ratio IC50 [7]?
**A.** > 500

**Q.** What about the Activity (Rattus norvegicus [8]) of the same molecule?
**A.** 21.04 U/L

**Q.** And the AUC [9]?
**A.** 19.7 µg·h/mL

**Q.** And the Ratio IC50 [10]?
**A.** > 500

**Q.** And the Activity (Rattus norvegicus [11])?
**A.** 8.01 ×10⁶ /uL

**Q.** And the Activity (Rattus norvegicus [12])?
**A.** 8.41 ×10³ /uL

**Q.** What about the bioavailability [13] of the same molecule?
**A.** 59.7%

**Q.** And the Tmax [14]?
**A.** 19.8 min

**Q.** And the Activity (Rattus norvegicus [15])?
**A.** Non-toxic

**Q.** And the IC50 [16]?
**A.** 1.09 µM

**Q.** What about the IC50 [17] of the same molecule?
**A.** 1.21 µM

**Q.** And the AUC [18]?
**A.** 11.8 µg·h/mL

**Q.** What about the Ratio IC50 [19] of the same molecule?
**A.** > 500

**Q.** And the Ratio IC50 [20]?
**A.** > 500

**Q.** What about the Activity (Rattus norvegicus [21]) of the same molecule?
**A.** Non-toxic

**Q.** What about the Activity (Rattus norvegicus [22]) of the same molecule?
**A.** 140.2 U/L

**Q.** And the IC50 (Stromelysin-1)?
**A.** 1.02 µM

**Q.** And the IC50 [23]?
**A.** 1.08 µM

**Q.** What about the t1/2 (Rattus norvegicus [24]) of the same molecule?
**A.** 229 min

**Q.** What about the Activity (Rattus norvegicus [25]) of the same molecule?
**A.** 0.358%

**Q.** What about the Activity (Rattus norvegicus [26]) of the same molecule?
**A.** 0.17 mg/dL
